This note sets out measurements from patent EP3901142A1, “PYRAZOLYLBENZENE-1,3-DIOLS FOR DISEASES ASSOCIATED WITH G PROTEIN-COUPLED RECEPTOR 18 AND IN COMBINATION WITH TRANSIENT RECEPTOR POTENTIAL VANILLOID 1” (Consejo Superior de Investigaciones Científicas (CSIC), priority 2020, dated 2021).

For this assay, the target named is TRPV1 (Homo sapiens, UniProt Q8NER1). Briefly: Calcium imaging (Fura-2 AM) in TRPV1-expressing cells. Type of assay: cell-based. Conditions: 5 µM; TPRV1-expressing cells. On the procedure: Cell Culture. A plasmid containing GPR18 (NM_005292) was obtained from Origene (Rockville, MD) and engineered with an N-terminal GFP-tag. The resulting plasmid was used to transfect CHO-K1 cells using Lipofectamine 2000 (Invitrogen, Carlsbad CA). Clonal cells were selected in medium containing G418 (Geneticin, 800 µg/ml; Enzo Life Sciences, Farmingdale, NY). Two weeks after transfection, clones were isolated and expression was verified by fluorescence microscopy of GFP-tagged receptors. The resulting stable cell line was cultured in DMEM with 10% fetal bovine serum at 37°C, 5% CO2 and passaged every 2-3 days. […] Two weeks after transfection, clones were isolated and expression was verified by fluorescence microscopy of HA-tagged receptors. […] Intracellular calcium levels were determined by measuring fluorescence emissions from Fura-2 AM (510 nm) after alternating excitation at 340 and 380 nm at 0.25 Hz for 5 min. Images were analyzed in the NIS-Elements AR software (Nikon), and the fluorescence ratio at 340nm/380nm was converted to Ca^2+ concentrations.
TRPV1, sequence (Q8NER1 whole entry): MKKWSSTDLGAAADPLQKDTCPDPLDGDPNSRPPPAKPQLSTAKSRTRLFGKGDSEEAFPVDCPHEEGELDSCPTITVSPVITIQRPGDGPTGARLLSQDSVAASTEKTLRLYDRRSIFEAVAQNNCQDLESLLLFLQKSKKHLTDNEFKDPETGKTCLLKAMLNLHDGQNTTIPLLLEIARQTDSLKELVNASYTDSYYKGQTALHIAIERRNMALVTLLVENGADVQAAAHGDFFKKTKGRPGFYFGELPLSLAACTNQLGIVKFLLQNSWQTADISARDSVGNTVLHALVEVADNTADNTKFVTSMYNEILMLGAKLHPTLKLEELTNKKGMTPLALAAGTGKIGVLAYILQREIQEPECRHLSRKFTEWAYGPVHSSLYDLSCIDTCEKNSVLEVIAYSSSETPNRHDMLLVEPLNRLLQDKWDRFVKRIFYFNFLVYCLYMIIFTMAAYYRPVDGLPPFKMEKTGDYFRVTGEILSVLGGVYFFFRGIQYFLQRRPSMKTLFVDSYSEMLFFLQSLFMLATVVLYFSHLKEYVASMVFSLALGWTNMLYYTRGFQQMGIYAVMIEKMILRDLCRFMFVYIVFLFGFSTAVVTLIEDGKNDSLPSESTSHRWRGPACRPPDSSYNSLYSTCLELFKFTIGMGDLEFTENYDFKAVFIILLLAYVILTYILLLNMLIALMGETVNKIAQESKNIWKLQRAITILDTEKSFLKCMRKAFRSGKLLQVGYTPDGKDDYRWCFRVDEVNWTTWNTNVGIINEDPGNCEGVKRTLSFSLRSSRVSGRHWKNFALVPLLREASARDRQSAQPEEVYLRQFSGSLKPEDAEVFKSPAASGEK

For `CCCCC/C=C\C/C=C\C/C=C\C/C=C\CCCC(=O)NCCO` [Anandamide], the “effect on intracellular calcium (Ca^2+)” value is “increases intracellular calcium (Ca^2+)”.
